Data: patent US8497263B2, “Pyrrolinone derivative and pharmaceutical composition comprising the same” (Shionogi & Co., Ltd., priority 2007, dated 2013)

Assays:
human P2X3 receptor = molecular target: T1, human P2X3 receptor (Homo sapiens, UniProt P56373); experiment: Inhibition of ATP-induced calcium fluorescence (Fluo-3, FDSS 3000) in C6BU-1 cells stably expressing human P2X3 receptor; format: cell-based; settings: C6BU-1 cell transfected with human P2X3 receptor gene; 40 nM ATP solution; Fluo-3 fluorescence intensity
T1 construct: expressed in transfected cells
T1 sequence (P56373 1-397): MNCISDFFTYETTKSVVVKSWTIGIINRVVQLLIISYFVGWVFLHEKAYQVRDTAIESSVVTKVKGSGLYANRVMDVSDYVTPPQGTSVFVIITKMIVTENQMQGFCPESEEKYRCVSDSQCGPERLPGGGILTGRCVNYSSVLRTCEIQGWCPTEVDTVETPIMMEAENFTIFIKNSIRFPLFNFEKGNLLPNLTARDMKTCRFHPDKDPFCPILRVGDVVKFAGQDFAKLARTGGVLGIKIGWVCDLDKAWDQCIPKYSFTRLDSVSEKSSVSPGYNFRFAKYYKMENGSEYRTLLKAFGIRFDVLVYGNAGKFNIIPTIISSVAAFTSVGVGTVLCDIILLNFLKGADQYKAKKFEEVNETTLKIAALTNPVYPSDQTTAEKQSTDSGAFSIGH
Method: Stably expressing cell line (C6BU-1 cell transfected with human P2X3 receptor gene (GenBank accession number Y07683)) was used. The cells were seeded in a 96-well microtiter plate at a concentration of 8000 cells/well and cultured in the medium (8.3% fetal bovine serum, 8.3% horse serum, 1% antibiotic and antifungal in DMEM) for one day at 37° C. under 5% carbon dioxide atmosphere. The medium was replaced with 4 μM Fluo-3-AM solution (pH7.5) containing 20 mM HEPES, 137 mM NaCl, 2.7 mM KCl, 0.9 mM MgCl2, 5.0 mM CaCl2, 5.6 mM D-glucose, 2.5 mM probenecid, 10% BSA, and 0.08% Pluronic F-127, and incubated at 37° C. under 5% dioxide carbon atmosphere for one hour. The plate was washed with washing buffer (20 mM HEPES, 137 mM NaCl, 2.7 mM KCl, 0.9 mM MgCl2, 5.0 mM CaCl2, 5.6 mM D-glucose, 2.5 mM probenecid, pH7.5), and each well was added with 40 μL of this buffer. The plate was placed in High-Throughput Screening System FDSS 3000 (Hamamatsu Photonics K.K.). Measurement of fluorescence intensity by FDSS 3000 was started, and 40 μL of DMSO solutions containing different concentrations of the test compound as prepared by dilution with dilution buffer (20 mM HEPES, 137 mM NaCl, 2.7 mM KCl, 0.9 mM MgCl2, 5.0 mM CaCl2, 5.6 mM D-glucose, 2.5 mM probenecid, 0.1% Pluronic F-127, pH7.5) were dispensed to each well through the built-in automatic dispenser. Five minutes after, 40 nM ATP solution (50 μL) prepared by dilution with the dilution buffer was dispensed through the built-in automatic dispenser, and the measurement of fluorescence intensity was continued for 3 min. For each well, the specific maximum fluorescence intensity was calculated as the ratio of the maximum fluorescence intensity after addition of the ATP solution to the fluorescence intensity at the starting of the measurement. […] FDSS software (Hamamatsu Photonics K.K.) was used for calculation of the specific maximum fluorescence intensity. IC50 was calculated using Microsoft™ Excel™ (Microsoft Corporation) and XLfit™ (ID Business Solutions Ltd.).

Structure (SMILES)	melting point	IC50 (human P2X3 receptor)
CCOC(=O)c1ccc(N2C(=O)C(=O)C(C(=O)c3ccc(OC)cc3)C2C2CCCCC2)cc1 (stereo not drawn) [Example I-2]	252 to 255 °C	10 nM
CCOC(=O)c1ccc(N2C(=O)C(=O)C(C(=O)c3ccc(OC)cc3)C2c2ccccc2)cc1 (stereo not drawn) [Example I-4]		20 nM
CCOC(=O)c1ccc(N2C(=O)C(O)=C(C(=O)c3ccc(OC)cc3)C2C(C)C)cc1 (stereo not drawn) [Example I-20]		140 nM
COc1ccc(C(=O)C2C(=O)C(=O)N(c3ccc(C(=O)OC(C)C)cc3)C2c2ccccc2)cc1 (stereo not drawn) [Example I-21]		160 nM
COC(=O)c1ccc(C(=O)C2=C(O)C(=O)N(c3ccc(C(F)(F)F)cc3)C2c2ccccc2)cc1 (stereo not drawn) [Example I-24]		180 nM
COc1ccc(C(=O)C2=C(O)C(=O)N(c3ccc(-c4nc(C)no4)cc3)C2c2ccc(F)cc2)cc1 (stereo not drawn) [Example I-25]	236 to 239 °C	180 nM
CCOC(=O)c1ccc(N2C(=O)C(O)=C(C(=O)C(C)(C)C)C2c2ccccc2)cc1 (stereo not drawn) [Example I-28]		260 nM
CCOC(=O)c1ccc(N2C(=O)C(O)=C(C(=O)c3cccs3)C2c2ccccc2)cc1 (stereo not drawn) [Example I-36]		380 nM
CCOC(=O)c1ccc(N2C(=O)C(=O)C(/C(=N\O)c3ccc(OC)cc3)C2c2ccccc2)cc1 (stereo not drawn) [Example I-44]		560 nM
CCCCC(=O)C1=C(O)C(=O)N(c2ccc(C(=O)OCC)cc2)C1c1ccccc1 (stereo not drawn) [Example I-49]		1020 nM
CCOC(=O)c1csc(N2C(=O)C(O)=C(C(=O)c3ccc(OC)cc3)C2c2ccccc2)n1 (stereo not drawn) [Example I-52]		1270 nM
CCOC(=O)c1ccc(N2C(=O)C(O)=C(C(=O)C3CCC3)C2c2ccccc2)cc1 (stereo not drawn) [Example I-53]		1280 nM
CCOC(=O)c1ccc(N2C(=O)C(O)=C(C(=O)c3cccn3C)C2c2ccccc2)cc1 (stereo not drawn) [Example I-57]		1530 nM
CC(=O)c1ccc(N2C(=O)C(=O)C(C(=O)c3ccc(Cl)cc3)C2c2ccc(Br)cc2)cc1 (stereo not drawn) [Example I-62]		1960 nM
COc1ccc(C(=O)C2=C(O)C(=O)N(c3ccc(Cl)cc3)C2c2ccc(F)cc2)cc1 (stereo not drawn) [Example I-66]		3460 nM
CCOC(=O)c1ccc(N2C(=O)C(=O)C(C(C)=O)C2c2ccccc2)cc1 (stereo not drawn) [Example I-72]		4790 nM
COc1ccc(C(=O)C2=C(O)C(=O)N(c3ccc(C(=O)N(C)C)cc3)C2c2ccccc2)cc1 (stereo not drawn) [Example I-74]		5920 nM
COc1ccc(C(=O)C2=C(O)C(=O)N(c3ccc(C#N)cc3)C2c2ccccc2)cc1 (stereo not drawn) [Example I-76]		6480 nM
CCOC(=O)c1ccc(N2C(=O)C(O)=C(C(=O)c3ccco3)C2c2ccccc2)cc1 (stereo not drawn) [Example I-77]		8010 nM
CCOC(=O)Cc1ccc(N2C(=O)C(O)=C(C(=O)c3ccc(OC)cc3)C2c2ccccc2)cc1 (stereo not drawn) [Example I-79]		8950 nM
CCOc1ccc(C(=O)C2C(=O)C(=O)N(c3ccc(OC)cc3)C2c2ccc(Cl)cc2)cc1 (stereo not drawn) [Example I-88]		15400 nM
COc1ccccc1C1c2c(-c3ccc(C)cc3)n[nH]c2C(=O)N1c1ccc(F)cc1 (stereo not drawn) [Example I-95]		560 nM
O=C1c2[nH]nc(-c3ccc(Cl)cc3)c2C(c2ccc([N+](=O)[O-])cc2)N1c1ccccn1 (stereo not drawn) [Example I-118]		17800 nM
COc1cccc(C2c3c(C)n[nH]c3C(=O)N2c2ccc(Br)cc2)c1 (stereo not drawn) [Example I-122]		19300 nM
COc1ccc(C2NC(=O)c3[nH]nc(-c4ccc(C)cc4)c32)cc1OC (stereo not drawn) [Example I-124]		22000 nM
COc1ccccc1C1c2c(C3CCC3)n[nH]c2C(=O)N1c1ccc(F)cc1 (stereo not drawn) [Example I-260]		5630 nM
COc1ccc(C(=O)C2=C(O)C(=O)N(CCc3ccc(F)cc3)C2c2ccccc2OC)cc1 (stereo not drawn) [Example I-273]		2200 nM
COc1ccc(-c2n[nH]c3c2C(c2ccccc2OC)N(CCc2ccc(F)cc2)C3=O)cc1 (stereo not drawn) [Example I-278]		1400 nM

Structure (SMILES)	melting point	IC50 (human P2X3 receptor)
COc1ccccc1C1c2c(-c3ccc(F)cc3)n[nH]c2C(=O)N1c1ccc(F)cc1 (stereo not drawn) [II-5]		1370 nM
CCCCC(=O)C1=C(O)C(=O)N(c2ccc(-c3ccon3)cc2)C1c1ccccc1OC (stereo not drawn) [II-9]		860 nM
CO/N=C/c1ccc(N2C(=O)c3[nH]nc(-c4ccc(OC)cc4)c3C2c2ccccc2OC)cc1 (stereo not drawn) [II-13]		570 nM
CCOC(=O)c1ccc(N2C(=O)C(=NOC)C(C(=O)c3ccc(OC)cc3)C2c2ccccc2)cc1 (stereo not drawn) [II-16]		1510 nM
CCOC(=O)c1ccc(N2C(=O)C(O)=C(C(=NOC)c3ccc(OC)cc3)C2c2ccccc2)cc1 (stereo not drawn) [II-17]		305 nM
COc1ccc(/C(N)=C2/C(=O)C(=O)N(c3ccc(C(F)(F)F)cc3)C2c2ccccc2)cc1 (stereo not drawn) [II-22]		2310 nM
COc1ccccc1C1C(C(=O)C(C)(C)C)=C(O)C(=O)N1c1ccc(C2=NCCS2)cc1 (stereo not drawn) [II-29]		590 nM
COc1ccccc1C1C(C(=O)C2CC2)=C(O)C(=O)N1c1ccc(-c2ccon2)cc1 (stereo not drawn) [II-45]		1070 nM
C#Cc1ccc(N2C(=O)C(O)=C(C(=O)c3ccc(OC)cc3)C2c2ccc(F)cc2)cc1 (stereo not drawn) [II-57]		1680 nM
C#Cc1ccc(N2C(=O)c3[nH]nc(C(C)(C)C)c3C2c2ccc(F)cc2)cc1 (stereo not drawn) [II-64]		1310 nM
O=C(C1=C(O)C(=O)N(c2ccc(-c3ccon3)cc2)C1C1CCCCC1)c1cccnc1 (stereo not drawn) [II-75]		370 nM
COc1ccccc1C1C(C(=O)CCOCc2ccccc2)=C(O)C(=O)N1c1ccc(-c2ccon2)cc1 (stereo not drawn) [II-85]		2520 nM
COc1ccccc1C1c2c(CCOCc3ccccc3)n[nH]c2C(=O)N1c1ccc(-c2ccon2)cc1 (stereo not drawn) [II-87]		1320 nM
COc1ccc(C(=O)C2=C(O)C(=O)N(c3nc(-c4ccncc4)cs3)C2C2CCCCC2)cc1 (stereo not drawn) [II-95]		710 nM
O=C(C1=C(O)C(=O)N(c2ccc(-c3ccon3)cc2)C1C1CCCCC1)c1ccc([N+](=O)[O-])cc1 (stereo not drawn) [II-98]		70 nM
COc1ccc(-c2n[nH]c3c2C(c2ccccc2)N(c2ccc(C(=O)N(C)C)cc2)C3=O)cc1 (stereo not drawn) [II-106]		2080 nM
COc1ccccc1C1C(C(=O)C(C)=O)=C(O)C(=O)N1c1ccc(-c2ccon2)cc1 (stereo not drawn) [II-123]		2090 nM
COc1ccccc1C1C(C(=O)C(C)(C)CO)=C(O)C(=O)N1c1ccc(-c2ccon2)cc1 (stereo not drawn) [II-129]		740 nM
Nc1ccc(C(=O)C2=C(O)C(=O)N(c3ccc(-c4ccon4)cc3)C2C2CCCCC2)cc1 (stereo not drawn) [II-130]		130 nM
COc1ccccc1C1c2c(C(C)(C)C)n[nH]c2C(=O)N1c1ccc(-c2cc(CO)no2)cc1 (stereo not drawn) [II-171]		950 nM
COc1ccccc1C1c2c(C(C)(C)C)n[nH]c2C(=O)N1c1ccc(-c2cc(C(=O)N(C)C)no2)cc1 (stereo not drawn) [II-172]		2000 nM
COc1ccc(C(=O)C2=C(O)C(=O)N(c3nc4ccc(Cl)cc4s3)C2C2CCCCC2)cc1 (stereo not drawn) [II-181]		330 nM
CCC(CC)C1C(C(=O)c2ccc(C(=O)NCCO)cc2)=C(O)C(=O)N1c1ccc(-c2noc(C)n2)cc1 (stereo not drawn) [II-183]		32 nM
COc1ccccc1C1c2c(C(C)(C)C)n[nH]c2C(=O)N1c1ccc(-c2cc(NC(=O)OC(C)(C)C)no2)cc1 (stereo not drawn) [II-193]		2270 nM
CC(=O)Nc1ccc(C(=O)C2=C(O)C(=O)N(c3ccc(-c4ccon4)cc3)C2C2CCCCC2)cc1 (stereo not drawn) [II-201]		10 nM
CC(=O)Nc1ccc(-c2n[nH]c3c2C(C2CCCCC2)N(c2ccc(-c4ccon4)cc2)C3=O)cc1 (stereo not drawn) [II-202]		1620 nM
COc1ccc(-c2n[nH]c3c2C(C2CC2)N(c2ccc(-c4ccon4)cc2)C3=O)cc1 (stereo not drawn) [II-217]		1870 nM
